From PubChem BioAssay (NCI)
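Five compound concentrations were applied to cells in 96-well plates for 48 hours; endpoints were derived by simple linear interpolation of the resulting dose-response curve. At the GI50, growth is halved. TGI denotes the concentration required for complete inhibition of growth.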

Assays:
Test in all cases: DTP human tumour cell line panel, 48 h
HT29 colon = system: HT29 colon
LOX IMVI melanoma = system: LOX IMVI melanoma
MDA-MB-231 breast = system: MDA-MB-231 breast
MOLT-4 leukemia = system: MOLT-4 leukemia
NCI-H226 lung = system: NCI-H226 lung
NCI-H23 lung = system: NCI-H23 lung
OVCAR-5 ovarian = system: OVCAR-5 ovarian
SK-MEL-2 melanoma = system: SK-MEL-2 melanoma
SK-MEL-28 melanoma = system: SK-MEL-28 melanoma
SW-620 colon = system: SW-620 colon

| SMILES | TGI (HT29 colon) [µM] | TGI (LOX IMVI melanoma) [µM] | TGI (MDA-MB-231 breast) [µM] | TGI (MOLT-4 leukemia) [µM] | TGI (NCI-H226 lung) [µM] | TGI (NCI-H23 lung) [µM] | TGI (OVCAR-5 ovarian) [µM] | TGI (SK-MEL-2 melanoma) [µM] | TGI (SK-MEL-28 melanoma) [µM] | TGI (SW-620 colon) [µM] | GI50 (HT29 colon) [nM] | GI50 (LOX IMVI melanoma) [nM] | GI50 (MDA-MB-231 breast) [nM] | GI50 (MOLT-4 leukemia) [nM] | GI50 (NCI-H226 lung) [nM] | GI50 (NCI-H23 lung) [nM] | GI50 (OVCAR-5 ovarian) [nM] | GI50 (SK-MEL-2 melanoma) [µM] | GI50 (SK-MEL-28 melanoma) [µM] | GI50 (SW-620 colon) [µM] |
| --- | --- | --- | --- | --- | --- | --- | --- | --- | --- | --- | --- | --- | --- | --- | --- | --- | --- | --- | --- | --- |
| CC1=CCC([C@@](C)(O)CCCC(C)(C)N=C=S)CC1 (stereo not given in full) | 32.9 | 29.6 | 36.7 | 50.5 | 32.1 | 38.5 | 34.9 | 33.3 | 30.2 | 32.6 | – | – | – | – | – | – | – | – | – | – |
| CC(c1ccccc1)N1CCN(C(C)c2ccccc2)CC1 (stereo not given) | > 100 | > 100 | > 100 | > 100 | > 100 | > 100 | > 100 | > 100 | 95.4 | > 100 | – | – | – | – | – | – | – | – | – | – |
| Nc1ccc(N=Nc2c(S(=O)(=O)O)cc3ccccc3c2S(=O)(=O)O)cc1 | > 100 | > 100 | > 100 | > 100 | > 100 | > 100 | > 100 | > 100 | > 100 | > 100 | – | – | – | – | – | – | – | – | – | – |
| COC(=O)/C=C\C(C#N)(C#N)N=Cc1ccc(C)cc1 | 18.7 | 5.8 | 30.1 | 3.77 | 21.5 | 15.1 | 37.8 | 32.1 | 19.8 | > 27.9 | – | – | – | – | – | – | – | – | – | – |
| COc1ccc(C2c3cn[nH]c3CC3CCCCC32)cc1 (stereo not given) | 41.4 | 31.8 | 30.4 | 46.1 | 36.9 | 33.6 | 34.8 | 32.5 | 33.4 | 35.4 | – | – | – | – | – | – | – | – | – | – |
| O=S(=O)(O)C(CO)c1ccccc1 (stereo not given) (tested in a mixture with another compound) | > 100 | > 100 | > 100 | > 100 | > 100 | > 100 | > 100 | > 100 | > 100 | > 100 | – | – | – | – | – | – | – | – | – | – |
| COc1ccc(N2C(=O)CC(=O)N(NC(=O)C(C)Oc3ccccc3C)C2=S)cc1 (stereo not given) | > 100 | > 100 | > 100 | > 100 | > 100 | > 100 | > 100 | > 100 | > 100 | > 100 | – | – | – | – | – | – | – | – | – | – |
| O=C1NC2c3c(I)sc(I)c3C(O)C2O1 (stereo not given) | > 100 | > 100 | > 100 | > 100 | > 100 | > 100 | > 100 | > 100 | > 100 | > 100 | – | – | – | – | – | – | – | – | – | – |
| S=C1NC2=C(CSC/C2=C\c2cccc(Br)c2)C(c2cccc(Br)c2)N1 (stereo not given) | > 100 | > 100 | > 100 | > 100 | > 100 | > 100 | > 100 | > 100 | > 100 | > 100 | – | – | – | – | – | – | – | – | – | – |
| Clc1ccc(-c2nnc3sc4nc5ccccc5c-4nn23)c(Cl)c1 | > 100 | > 100 | > 100 | > 100 | > 100 | > 100 | > 100 | 82.2 | > 100 | > 100 | – | – | – | – | – | – | – | – | – | – |
| Nc1ncc(-c2ccc3ncnc(Nc4ccc(F)c(Cl)c4)c3c2)cn1 | 19.3 | 10.7 | 3.8 | 9.33 | 4.67 | 39.3 | 3.69 | 39.9 | 17.6 | 11.7 | 2310 | 2350 | 1440 | 2240 | 2070 | 2810 | 1020 | 18.2 | 3.08 | 3.02 |
| O=[N+]([O-])C(=C(Nc1ccccc1)Nc1ccccc1)C(Cl)=C(Cl)Cl | 34.6 | 25.1 | 33.3 | 1.09 | 40.4 | 30 | 41.8 | 28.3 | 35.7 | 30.9 | – | – | – | – | – | – | – | – | – | – |
| COc1cc2c(cc1OC)C1C3CCCCC3CCN1CC2 (stereo not given) | > 100 | > 100 | > 100 | > 100 | > 100 | > 100 | > 100 | > 100 | > 100 | > 100 | – | – | – | – | – | – | – | – | – | – |
| COc1cc(O)c2c(c1)C(=O)c1cc3c(c(O)c1C2=O)C(OC1OC(C)C(OC)C(O)C1OC)C(OC)C(C)(O)C3=O (stereo not given) | 11.8 | 12.4 | 27.3 | 12.2 | 9.54 | 23.2 | 33.6 | 23.5 | 22.1 | 18.1 | – | – | – | – | – | – | – | – | – | – |
| O=C(CCn1ccnc1[N+](=O)[O-])NCCCn1ccnc1[N+](=O)[O-] | > 100 | > 100 | > 100 | > 100 | > 100 | > 100 | > 100 | > 100 | > 100 | > 100 | – | – | – | – | – | – | – | – | – | – |
| O=C(O)c1ccccc1CC(Cc1ccc2c(c1)CCC2)C(=O)O (stereo not given) | > 100 | > 100 | > 100 | > 100 | > 100 | > 100 | > 100 | > 100 | > 100 | > 100 | – | – | – | – | – | – | – | – | – | – |
| O=C1NC(N2CCOCC2)=N/C1=C\c1ccco1 | > 100 | > 100 | > 100 | > 100 | > 100 | > 100 | > 100 | > 100 | > 100 | > 100 | – | – | – | – | – | – | – | – | – | – |
| C=C1C(=O)CC2C1CC(=O)/C(C)=C/CCC(C)(O)C2O (stereo not given) | 26.9 | 11.9 | 25.2 | 6.2 | 61.6 | 20.6 | 27.7 | 22.9 | 33.3 | > 33.7 | – | – | – | – | – | – | – | – | – | – |
| COC(=O)C(Cc1ccc2c(c1)CCC2)Cc1ccc2c(c1)CCC2 | > 100 | 60.4 | > 100 | > 100 | > 100 | > 100 | > 100 | > 100 | > 100 | > 100 | – | – | – | – | – | – | – | – | – | – |
| C/C(C[n+]1ccccc1)=N\N=C(N)N | > 100 | > 100 | > 100 | > 100 | > 100 | > 100 | > 100 | > 100 | > 100 | > 100 | – | – | – | – | – | – | – | – | – | – |
